# In US20110144125A1, “Anti-Arrhythmia Agents, Methods of Their Use, Methods of Their Identification and Kits Therefore” (THE UAB RESEARCH FOUNDATION, priority 2008, published 2011):
# Structures can show the parent of a compound that is named as a salt.
# Experiments:
# [1] = test system: rat left atria; experiment: Spontaneous tachycardic activity (STA) in isolated rat left atria exposed to 2-APB under increased calcium load
# Method: (§1) Male Sprague-Dawley rats (325-400 g) were anesthetized with intra-peritoneal pentobarbital (0.1 g/kg). Their right and left atria were isolated, superfused at 30° C. in Krebs-Henseleit buffer, and nearly isometric forces of contraction were measured from these muscles (Wolkowicz et al., 2002). 2-APB was prepared as a 150 mM dimethyl sulfoxide stock.
# (§2) Left atria (n=8 per group) were paced at 3 Hz and (i) titrated with 0 to 30 nM isoproterenol (Ahlquist, 1970) or (ii) exposed to 3 μM forskolin (Laurenza et al., 1980). Left atrial force and frequency of contraction, the time to peak tension and relaxation times were recorded after a 3-5 min exposure to forskolin or to any concentration of isoproterenol. The 3 Hz pacing stimulus was interrupted at the end of these protocols to measure SMEs.
# (§3) Left atria (n=10 per group) were paced at 0.1 Hz and treated with (i) 20 μM 2-APB for 10 min, (ii) with 30 nM isoproterenol for 5 min followed by 20 μM 2-APB for 10 min, and (iii) with 3 μM forskolin for 5 min followed by 20 μM 2-APB for 10 min.
# Left atrial contraction and relaxation times were recorded at these five times, the pacing stimulus was stopped and rates of SMA were recorded. To determine whether initial pacing rate affects left atrial response to 2-APB and isoproterenol, left atria (n=5-7 per group) were paced at 3 Hz and (i) remained untreated for 15 min, (ii) were treated with 20 μM 2-APB alone for 10 min, or (ii) were treated with 30 nM isoproterenol for 5 min followed by 20 μM 2-APB for 10 min. Atrial mechanical function was measured at these four times; the pacing stimulus then was stopped and rates of SMA were recorded.
# (§4) Left atria (n=6 per group) were paced at 3 Hz, titrated with 0 to 300 nM (−)BayK 8644 ([…]-1,4-Dihydro-2,6-dimethyl-5-nitro-4-[2-(trifluormethyl)phenyl]-3-pyridinecarboxylic acid methyl ester; Franckowiak et al. 1985) or FPL-64176 ((2,5-Dimethyl-4-[2-(phenylmethyl)benzoyl]-111-pyrrole-3-carboxylic acid methyl ester; Zheng et al., 1991) and their mechanical function and rates of SMA were recorded after a 5 min exposure to any concentration of slow calcium channel activator.
# Left atria (n=8 per group) were paced at 0.1 Hz, exposed to 300 nM BayK 8644 or FPL-64176 for 5 min followed by 20 μM 2-APB for 10 min. Atrial mechanical function was recorded at this time; the pacing stimulus then was stopped and rates of SMA were recorded.
# (§5) To test whether ryanodine receptor calcium leak produces SMA, left atria (n=6 per group) were paced at 0.1 Hz, treated with 0 or 300 nM BayK 8644 for 5 min, and then exposed to 600 nM ryanodine (Sutko et al., 1997). Atrial mechanical function and rates of SMA were recorded 20 min after exposure to ryanodine.
# Rates of SMA were measured 5 min later.
# (§6) Left atria (n=7) were paced at 3 Hz, treated with 120 μM ouabain (Illanes and Marshall, 1964), and any change in mechanical function was recorded at a new steady state, ˜10 min later. These atria were exposed to 20 μM 2-APB and their mechanical function and rates of SMA were recorded 10 min later.
# 3 Hz-paced left atria (n=9 per group) were superfused (i) in Krebs-Henseleit alone or (ii) they were treated with 20 μM 2-APB for 10 min, (iii) with 300 nM BayK 8644 for 10 min and with 20 μM 2-APB for 10 min, or (iv) they were treated with 300 nM BayK 8644 and 20 μM 2-APB for 10 min, then with 70 μM zatebradine (3-[3-[[2-(3,4-Dimethoxyphenyl)ethyl]methylamino] propyl]-1,3,4,5-tetrahydro-7,8,-dimethoxy-2H-3-benzazepin-2-one hydrochloride) for 10 min (Baruscotti et al., 2005). Pacing was interrupted at these times and rates of SMA were recorded.
# [2] = test system: rat left atrial appendage; experiment: 2-APB-induced spontaneous mechanical activity (SMA/SMEs) in isolated superfused rat left atria / left atrial appendage
# Method: (§7) Left atria were isolated from male Sprague-Dawley rats (325 to 400 g) under IP pentobarbital anesthesia (0.1 g/kg). Isolated left atria were superfused at 30° C. in Krebs-Henseleit (KH) buffer of the following mM composition: NaCl, 118; NaHCO3, 27; KCl, 4.8; MgSO4, 1.2; KH2PO4, 1.0; CaCl2, 1.8; and glucose, 11.1. Nearly isometric left atrial forces of contraction were measured as described.
# Isolated superfused left atria were paced at 3 Hz. 2-APB was added to atrial superfusates from 0.015 or 0.15M DMSO stock solutions to achieve concentrations of 0, 2, 7.5, 15, or 22 μM (n=5 to 10 atria per concentration). Changes in atrial mechanical force were recorded during a subsequent 15 min superfusion.
# Two groups of 5 to 6, 3 Hz paced atria were superfused in KH and exposed to 0 or 15 μM 2-APB for 10 min. The pacing stimulus was interrupted for 5 min and the number of spontaneous mechanical events (SMEs), defined as increases in mechanical force occurring in the absence of pacing, were measured as was the postrest potentiation response (PRP).
# To determine whether diastolic interval affected the interaction between 2-APB and left atria, atrial pacing was decreased to 0.1 Hz, and 0, 7.5, or 22 μM 2-APB was added to the superfusate (n=6-8 per group). Superfusions continued for 15 min, and changes in atrial mechanical function were observed.
# To establish whether SMA was reversible, atria (n=7) were paced at 0.1 Hz, exposed to 15 μM 2-APB for 10 min, and washed with KH. The effect of removing 2-APB on atrial mechanical function was recorded.
# To test whether an anion transport inhibitor affected SMA, atria (n=7) were paced at 0.1 Hz in KH and exposed to 15 μM 2-APB. Following the appearance of SMA, they were titrated with 100 to 400 μM DIDS for 3 to 5 min at each concentration. Whether SMA occurred at the end of each titration period was recorded.
# as §3
# The appendages then were titrated with increasing concentrations of 2-APB, and SMA was measured and recorded.
# To determine the anti-arrhythmic activity of gossypol, isolated rat left atrial appendage and right ventricular muscle strips were used as model systems, as described above. Heart muscle was exposed to 20 μM 2-APB for 10 min to induce SMA, and rates of SMA were recorded as a percentage of initial SMA. The muscles then were titrated with up to 5 increasing concentrations of gossypol. Rates of SMA were recorded ˜10 min after the addition of concentration of the polyphenol.
# To determine whether EGCG can prevent arrhythmia, rat left atrial appendages (n=9) were exposed to 20 μM 2-APB and rates of SMA were recorded. Groups of muscles (n=6 per) were pre-treated with 30 μM EGCG for 10 min following which they were exposed to 2-APB. Rates of SMA were recorded 10 min later.
# To determine whether EGCG is effective to reverse arrhythmia, isolated rat left atrial appendage and right ventricular muscle strips were used as model systems, as described above. Rat left atrial appendages were exposed to 20 μM 2-APB for 10 min to induce SMA, and rates of SMA were recorded as a percentage of initial SMA. The left atrial appendages then were titrated with up to 5 increasing concentrations of the following polyphenols: EGCG, gossypol, resveratrol, and quercetin. Rates of SMA were recorded ˜10 min after the addition of concentration of the polyphenol.
# To determine whether EGC can prevent arrhythmia, left atrial appendages (n=9) were exposed to 20 μM 2-APB and rates of SMA were recorded. Groups of appendages (n=6 per) were pre-treated with 30 μM EGC for 10 min following which they were exposed to 2-APB.
# [3] = test system: rat left atria; experiment: Left atrial force of contraction / post-rest potentiation maximum force; conditions: 400 μM DIDS alone, no 2-APB
# Method: as §7
# The initial potentiated beat following prolonged rest (i.e., the PRP maximum force of contraction) reflects activator calcium available for SR release. The PRP response was used to obtain an indirect measure of left atrial SR calcium under our conditions.
# Left atria (n=6) were superfused in KH, paced at 0.1 Hz, and subjected to PRP. Superfusion proceeded for another 35 min, and a second PRP was performed. These 2 forces were compared to assure the mechanical stability of our preparations.
# One group (n=8) was superfused in KH, paced at 0.1 Hz, and their maximum force of contraction was measured. These atria were washed with KH containing 82 mM sodium, and a second PRP was performed 23 min later.
# A second group (n=8) was paced at 0.1 Hz in KH and subjected to PRP. They were exposed to 22 μM 2-APB and, after the appearance of SMA, were washed with KH containing 22 μM 2-APB and 82 mM sodium. Superfusion continued for 23 min and a second PRP was performed.
# Control 0.1 Hz paced atria (n=8) were subjected to PRP and exposed to 400 μM DIDS, and a second PRP was performed 23 min later.
# A group of atria (n=8) were paced at 0.1 Hz in KH and subjected to PRP. They were exposed to 22 μM 2-APB, 400 μM DIDS was added to the superfusate after the appearance of SMA, and a second PRP was performed 23 min later.
# as §2, §4, §5, §6
# To test whether zatebradine affects left atrial force of contraction, two groups of left atria (n=9 per group) were paced at 3 Hz and treated with 300 nM BayK 8644. Five minutes later one group was incubated with six increasing concentrations of zatebradine (10-100 μM) for 3-5 min at each concentration, and forces of contraction were recorded. A second group was treated with BayK 8644 but not zatebradine, and forces of contraction were recorded at corresponding times.
# [4] = test system: rat right atria; experiment: Right atrial spontaneous (pacemaker-driven) contraction frequency; conditions: ZD-7288 titration 0-100 μM
# Method: as §1
# Left atria (n=9) were paced at 0.1 Hz, treated with 300 nM BayK 8644 for 5 min, then with 20 μM 2-APB for 10 min, and the pacing stimulus was stopped. These preparations then were incubated with six increasing concentrations of zatebradine (10-100 μM) for 3-5 min at each concentration, and rates of SMA were recorded. Untreated right atria (n=9) also were titrated with zatebradine and its effect on contraction frequency was recorded.
# To test whether zatebradine affects the SMA occurring in the presence of 2-APB and isoproterenol, left atria (n=7) were paced at 0.1 Hz, treated with 30 nM isoproterenol for 5 min, then with 20 μM 2-APB for 10 min, and the pacing stimulus was stopped. Rates of SMA were recorded, these left atria were exposed to 70 μM zatebradine for 10 min, and rates of SMA were recorded again. A group of right atria (n=7) also were exposed to 30 nM isoproterenol for 5 min and then to 70 μM zatebradine for 10 min. Right atrial contraction frequency was recorded at these two times.
# To test whether ZD-7288 (4-Ethylphenyl amino-1,2-dimethyl-6-methylaminopyridinium chloride), an If inhibitor structurally unrelated to zatebradine (Baruscotti et al., 2005; Sanders et al., 2006) affects the SMA occurring in the presence of 2-APB and BayK 8644, rat left atria (n=7) were treated with 300 nM BayK 8644 for 5 min, then with 20 μM 2-APB for 10 min, and the rates of SMA were recorded. These atria then were incubated with six increasing concentrations of ZD-7288 (10-100 μM) for 3-5 min at each concentration, and the rates of SMA were recorded. Right atria (n=7) were titrated similarly with ZD-7288 (0-100 μM) and the change in their contraction frequency was recorded.
smiles,measurement,setting,value
C=C[C@@]1(C)CC(=O)[C@]2(O)[C@@]3(C)[C@@H](O)CCC(C)(C)[C@@H]3[C@H](O)[C@H](OC(C)=O)[C@@]2(C)O1 [forskolin],rate of STA (SMA frequency) in presence of 2-APB and calcium loading agent,"[1]; 20 μM 2-APB plus 30 nM isoproterenol, 3 μM forskolin, 300 nM BayK 8644, 300 nM FPL-64176 or 120 μM ouabain, absence of pacing, 30° C.",231±5 contractions/min
"O=S(=O)(O)c1cc(N=C=S)ccc1C=Cc1ccc(N=C=S)cc1S(=O)(=O)O [DIDS, 4,4′-diisothiocyanatostilbene-2,2′-disulfonic acid]",DIDS concentration that reversed SMA completely,"[2]; 0.1 Hz paced, 15 μM 2-APB, titration after appearance of SMA",> 300 µM
same,"maximum forces of left atrial contraction, beginning vs end of 35-min superfusion",[3],not different
"COc1ccc(CCCOC(Cn2ccnc2)c2ccc(OC)cc2)cc1 (centres unmarked) [SKF-96365, 1-[2-(4-Methoxyphenyl)-2-[3-(4-methoxyphenyl)propoxy]ethyl-1H-imidazole hydrochloride]",prevention and reversal of SMA,[2]; data not shown,prevents and reverse SMA
same,reversal of STA,"[1]; 0.1 Hz-paced, BayK 8644 and 2-APB, ˜50 μM SKF-96365",STA was suppressed
same,IC50,"[1]; Rattus norvegicus, BayK 8644 and 2-APB, read-out: IC50 for reversal of STA",~15 µM
same,prevention of STA,[1]; data not shown,prevents STA
COc1ccccc1OCC(O)CN1CCN(CC(=O)Nc2c(C)cccc2C)CC1 (centres unmarked) [ranolazine],effect on sporadic ectopic activity (SMA),"[2]; 2-APB-treated appendages, known anti-arrhythmic agents, lidocaine data not shown",prevent the sporadic ectopic activity
same,effect on tachycardic activity (STA),"[1]; high calcium loads, 2-APB and 300 nM (−)BayK 8644, 80 μM ranolazine","suppresses, but does not completely prevent"
CCN(c1ccccc1)c1cc(NC)[n+](C)c(C)n1.[Cl-] [ZD-7288],effect of If inhibitor on left atrial STA,"[1]; BayK 8644 and 2-APB, zatebradine 70 μM, ZD-7288 titration to 100 μM",decreases left atrial STA
same,effect on right atrial contraction frequency,[4],decreases right atrial contraction frequency less robustly than zatebradine
